Test results taken from patent publication US4423218A, “Antibiotic neplanocin A” (Toyo Jozo Kabushiki Kaisha, priority 1978, dated 1983).

Columns and labels:
[1] = system: Helminthosporium oryzae M 0306; assay: Growth inhibitory activity on plant pathogenic fungi (agar plate); format: cell-based; conditions: Bipolaris oryzae, M0306; 100 γ/ml solution, agar plate of Helminthosporium oryzae M 0306; read-out: inhibitory zone diameter
Source text: (1) Growth inhibitory activity on plant pathogenic fungi: […]

in vivo = conditions: mouse, ip, mice
[2] = Repeated intraperitoneal administration for 14 days, mortality; format: in vivo; conditions: intraperitoneally for 14 days, 5 mg/kg/day
Solubility = format: physicochemical
Nature (basicity) = format: physicochemical

SMILES: Nc1ncnc2c1ncn2C1C=C(CO)C(O)C1O (single isomer, unassigned) [neplanocin A]
- zone of inhibition at 100 µg/mL [1]: 18.9 mm
- LD50 (in vivo): 13.7 mg/kg
- mortalities [2]: No mortalities were observed
- Solubility (Solubility; acetic acid): Soluble
- Solubility (Solubility; aqueous acetone): Soluble
- Solubility (Solubility; benzene): Insoluble
- Solubility (Solubility; chloroform): Insoluble
- Solubility (Solubility; dimethylformamide): Soluble
- Solubility (Solubility; dimethylsulfoxide): Soluble
- Solubility (Solubility; ethyl acetate): Insoluble
- Solubility (Solubility; hexane): Insoluble
- Solubility (Solubility; water): Soluble
- Nature (Nature (basicity)): weakly basic
